Measurements reported in article PMC3790851, “Improved Mass Spectrometry Assay For Plasma Hepcidin: Detection and Characterization of a Novel Hepcidin Isoform” (PLoS ONE, 2013).
Bridge positions count the residues as written; N and C are the ends. Peptide text beside a SMILES is read from it.

Tests used:
in vitro [1] = conditions: human
Procedure: (§1) Samples were used for measurement of hepcidin between 4–7 hrs after blood drawing and/or pooled and/or stored in aliquots at various temperatures for prolonged periods of time.
(§2) Fresh samples were measured within 2–4 hrs hours after blood drawing and stored in aliquots at various temperatures for prolonged incubation.
(§3) Mass-to-charge (m/z) spectra were generated by using MALDI-TOF MS (Microflex LT, Bruker Daltonics). Spectra were analyzed by using Bruker Daltonics FlexAnalysis software. […] Total hepcidin concentration was defined as the sum of hepcidin-25, -24, -22, and -20 concentrations.
(§4) Using the novel heavy hepcidin-25 internal standard, we assessed changes in hepcidin-25 and the smaller isoforms in various samples containing various anticoagulants ex vivo at room temperature (RT), 4°C, −20°C and −80°C. More specifically, changes in hepcidin concentrations relative to those found in freshly collected samples were determined i) at storage at RT and 4°C on day 0 (fresh samples), 1 (14–22 hrs), 2, 3, and 7 days after sampling/storage, ii) at −20°C after 1 week, and after 1, 4 and 6 months of storage and iii) at −80°C at after 6 months of storage.

[2] = biological target: T1, green fluorescent protein (GFP)-fused human ferroportin (Homo sapiens, UniProt Q9NP59); test: Hepcidin bioactivity assay: GFP-ferroportin internalization and degradation; assay type: cell-based; conditions: for potency as inducer of ferroportin degradation: synthetic peptides, compared with hepcidin-25
T1 construct: expressed in transfected cells
T1 sequence (Q9NP59 1-571): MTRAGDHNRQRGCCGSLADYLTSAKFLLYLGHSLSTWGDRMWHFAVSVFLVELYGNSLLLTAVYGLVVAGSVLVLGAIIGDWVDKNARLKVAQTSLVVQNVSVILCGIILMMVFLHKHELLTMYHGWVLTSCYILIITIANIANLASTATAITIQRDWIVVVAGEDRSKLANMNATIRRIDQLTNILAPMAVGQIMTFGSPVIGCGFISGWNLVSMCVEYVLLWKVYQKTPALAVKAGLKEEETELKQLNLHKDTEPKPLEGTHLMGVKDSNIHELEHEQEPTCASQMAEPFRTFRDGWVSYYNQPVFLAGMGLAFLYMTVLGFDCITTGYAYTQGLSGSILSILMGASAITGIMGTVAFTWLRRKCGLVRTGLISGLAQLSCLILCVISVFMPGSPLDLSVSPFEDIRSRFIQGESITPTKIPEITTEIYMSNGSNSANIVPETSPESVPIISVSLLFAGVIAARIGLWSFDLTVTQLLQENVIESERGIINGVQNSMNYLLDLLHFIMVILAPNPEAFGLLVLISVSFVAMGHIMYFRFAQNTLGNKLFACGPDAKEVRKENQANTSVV
Excerpt: A stable cell line engineered for inducible expression of green fluorescent protein (GFP)-fused human ferroportin was used as a test system to determine hepcidin-24 activity relative to hepcidin-25, 22 and 20. In this cell system, ferroportin internalization and degradation provided a means to quantify hepcidin activity. The assay was implemented basically as described by Nemeth et al., [33] except that fluorescence was quantified in triplicate wells on a microplate reader. To determine EC50 values for hepcidin-25 and hepcidin-24, a curve was fitted by nonlinear regression with a four parameter logistic equation using Prism v5 (GraphPad).
Figure 5 Hepcidin-mediated ferroportin internalization. Different concentrations of synthetic hepcidin-25, -24, -22 and -20 (indicated in nM on the horizontal axis) were added to the growth medium of a stable cell line that expresses green fluorescent protein-fused ferroportin (GFP-FPN). Hepcidin-mediated GFP-FPN internalization and degradation was quantified by measuring cellular fluorescence levels in arbitrary units.

[3] = average, % of fresh, 10 IC patients and 5 controls; for Hepcidin level after one day at 4°C, EDTA plasma: CV (Hep-25/-24/-22/-20) 11/6/11/22
Procedure: as §1, §2, §3, §4

[4] = Stability of hepcidin in plasma/serum at room temperature (WCX-TOF MS); assay type: in vitro ADME, human; conditions: for Hepcidin level after one week at RT / Hepcidin level after one day at RT / Hepcidin level after one week at RT, without protease inhibitors / Hepcidin level after one day at RT, without protease inhibitors / remaining at 168 h / remaining at 1 day: average; for Hepcidin level after one week at RT / Hepcidin level after one day at RT: % of fresh sample, human heparin plasma, 19 IC patients + 5 controls, results <1.0 nM removed, WCX-TOF MS, hepcidin-25^+40 internal standard, n = 24/15/13/18/11; for Hepcidin level after one week at RT / Hepcidin level after one week at RT, without protease inhibitors / remaining at 168 h: 7 days; for Hepcidin level after one week at RT: CV (Hep-25/-24/-22/-20/Total) 23/29/29/38/17; for Hepcidin level after one day at RT: CV (Hep-25/-24/-22/-20/Total) 8/21/14/25/5; for Hepcidin level after one week at RT, without protease inhibitors / Hepcidin level after one day at RT, without protease inhibitors / remaining at 168 h / remaining at 1 day: % of fresh, 10 IC patients, n = 10/8/7/8; for Hepcidin level after one week at RT, without protease inhibitors / Hepcidin level after one day at RT, without protease inhibitors: results <1 nM excluded; for Hepcidin level after one week at RT, without protease inhibitors: CV (Hep-25/-24/-22/-20) 30/31/23/41; for Hepcidin level after one day at RT, without protease inhibitors: CV (Hep-25/-24/-22/-20) 13/20/11/11; for remaining at 168 h / remaining at 1 day: human, Complete Mini (Roche); for remaining at 168 h: CV (Hep-25/-24/-22/-20) 25/35/9/25, read-out: Hepcidin level after one week at RT, with protease inhibitors; for remaining at 1 day: 1 tablet in 200 µL PBS, 20 µL per 1 ml plasma, CV (Hep-25/-24/-22/-20) 8/30/4/14, read-out: Hepcidin level after one day at RT, with protease inhibitors
Procedure: Spectra were analyzed by using Bruker Daltonics FlexAnalysis software.
To assess the stability of hepcidin in serum and plasma matrices, we kept samples from intensive care patients (n = 20) and healthy controls (n = 5) at room temperature for 0–7 days followed by WCX-TOF MS analysis using the hepcidin-25^+40 internal standard. […] For the samples at day 1 and day 7, the mean decrease in hepcidin-25 for the 5 controls and 20 intensive care patients was 90% (CV, 8% ) and 55% (CV, 23%), respectively (Table 3).

[5] = average, % of fresh, 10 IC patients and 5 controls, n = 15/8/6/9, hepcidin-20 unreliable (additional peak)
Procedure: as §1, §2, §3, §4

in vitro [6] = conditions: human; remark: listed apart in the source
Procedure: as §1, §2, §3, §4

[7] = results <1.0 nM deleted, n = 15/8/6/9
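For Hepcidin level after one month at -20°C, EDTA plasma in this document: hepcidin in stored plasma or serum quantified by MALDI-TOF MS against a heavy hepcidin-25 internal standard, expressed relative to concentrations in freshly collected samples.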
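For Hepcidin level after one week at -20°C, EDTA plasma in this document: hepcidin in stored plasma or serum quantified by MALDI-TOF MS against a heavy hepcidin-25 internal standard, expressed relative to concentrations in freshly collected samples.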

SMILES | remaining at 672 h (in vitro [1]; heparin plasma) | activity relative to hepcidin-24 (fold lower) [2] | potency as inducer of ferroportin degradation [2] | Hepcidin level after one day at 4°C, EDTA plasma [3, 7] | Hepcidin level after one week at 4°C, heparin plasma ([3]; 7 days, CV (Hep-25/-24/-22/-20) 5/8/8/21, n = 15/7/6/10) | Hepcidin level after one week at 4°C, EDTA plasma ([3]; 7 days, CV (Hep-25/-24/-22/-20) 9/8/18/21, n = 15/8/6/9, hepcidin-20 in stored EDTA plasma unreliable (additional peak)) | Hepcidin level after one week at RT [4] | Hepcidin level after one day at RT [4] | Hepcidin level after one week at RT, without protease inhibitors ([4]; heparin plasma) | Hepcidin level after one day at RT, without protease inhibitors ([4]; heparin plasma) | level of isoform emerging in control samples at RT ([4]; heparin plasma, healthy controls, 0–7 days) | remaining at 168 h ([4]; heparin plasma) | remaining at 1 day ([4]; heparin plasma) | Hepcidin level after one month at -20°C, EDTA plasma ([5]; 4 weeks, CV (Hep-25/-24/-22/-20) 9/11/19/40) | Hepcidin level after one week at -20°C, EDTA plasma ([5]; CV (Hep-25/-24/-22/-20) 11/12/11/28) | remaining at 1 week (in vitro [1]; EDTA plasma) | remaining at 672 h (in vitro [1]; EDTA plasma) | Hepcidin level after one day at 4°C, heparin plasma ([3]; results <1.0 nM deleted, CV (Hep-25/-24/-22/-20) 7/5/13/20, n = 15/7/6/10) | remaining at 168 h (in vitro [6]; EDTA plasma) | remaining at 168 h (in vitro [6]; heparin plasma)
CC[C@H](C)[C@H](N)C(=O)N[C@H]1CSSC[C@@H](C(=O)N[C@@H](CCCCN)C(=O)N[C@H](C(=O)O)[C@@H](C)O)NC(=O)[C@@H]2CSSC[C@H](NC(=O)[C@H](Cc3ccccc3)NC(=O)[C@H]([C@@H](C)CC)NC1=O)C(=O)N[C@H]1CSSC[C@H](NC(=O)[C@H](CCCCN)NC(=O)[C@H](CO)NC(=O)[C@H](CCCNC(=N)N)NC(=O)[C@H](Cc3c[nH]cn3)NC(=O)[C@@H]3CSSC[C@H](NC(=O)CNC1=O)C(=O)N3)C(=O)NCC(=O)N[C@@H](CCSC)C(=O)N2 [Hepcidin-20] (H-ICIFCCGCCHRSKCGMCCKT-OH; disulfide 2-18, 5-17, 6-14, 8-9 (inferred); N-terminus and C-terminus assumed) | 102% | at least 10 fold | significantly less potent inducer of ferroportin degradation than hepcidin-25 | 94% | 114% | 165% | 138% | 115% | 164% | 141% | below 1 nM | 114% | 118% | 210% | 183% |  |  |  |  | 
CC[C@H](C)[C@@H]1NC(=O)[C@@H](NC(=O)[C@@H](NC(=O)[C@@H]2CCCN2C(=O)[C@@H](N)Cc2ccccc2)[C@@H](C)CC)CSSC[C@@H](C(=O)N[C@@H](CCCCN)C(=O)N[C@H](C(=O)O)[C@@H](C)O)NC(=O)[C@@H]2CSSC[C@H](NC(=O)[C@H](Cc3ccccc3)NC1=O)C(=O)N[C@H]1CSSC[C@H](NC(=O)[C@H](CCCCN)NC(=O)[C@H](CO)NC(=O)[C@H](CCCNC(=N)N)NC(=O)[C@H](Cc3c[nH]cn3)NC(=O)[C@@H]3CSSC[C@H](NC(=O)CNC1=O)C(=O)N3)C(=O)NCC(=O)N[C@@H](CCSC)C(=O)N2 [Hepcidin-22] (H-FPICIFCCGCCHRSKCGMCCKT-OH; disulfide 4-20, 7-19, 8-16, 10-11) | 89% | at least 10 fold | significantly less potent inducer of ferroportin degradation than hepcidin-25 | 104% |  |  | 150% | 127% | 160% | 135% |  | 117% | 105% |  |  | 98% | 96% | 104% | 106% | 96%
